Test: excess molar enthalpy (molar enthalpy of mixing); xn = mol fraction of the nth substance listed
Details: 101.3 kPa, Liquid, Flow calorimetry

CCCCO [butan-1-ol] + CCCCCCC
excess molar enthalpy [kJ/mol]
Details | 298.15 K | 313.15 K
x2 = 0.0502 | 0.0736 | 0.103
x2 = 0.0999 | 0.147 | –
x2 = 0.1 | – | 0.205
x2 = 0.1504 | 0.217 | –
x2 = 0.1505 | – | 0.304
x2 = 0.2 | 0.282 | –
x2 = 0.2001 | – | 0.395
x2 = 0.2498 | 0.344 | –
x2 = 0.2499 | – | 0.48
x2 = 0.2998 | 0.402 | –
x2 = 0.2999 | – | 0.56
x2 = 0.3497 | 0.453 | –
x2 = 0.3498 | – | 0.632
x2 = 0.4004 | 0.499 | 0.697
x2 = 0.4496 | 0.54 | 0.751
x2 = 0.5001 | 0.575 | –
x2 = 0.5002 | – | 0.795
x2 = 0.5498 | 0.601 | –
x2 = 0.5499 | – | 0.827
x2 = 0.5996 | 0.618 | –
x2 = 0.5997 | – | 0.847
x2 = 0.6504 | 0.623 | –
x2 = 0.6505 | – | 0.854
x2 = 0.6999 | 0.617 | 0.847
x2 = 0.7501 | 0.598 | 0.825
x2 = 0.7998 | 0.567 | 0.789
x2 = 0.8502 | 0.522 | 0.733
x2 = 0.8997 | – | 0.65
x2 = 0.8998 | 0.459 | –
x2 = 0.9497 | 0.361 | 0.508

— the NIST ThermoML archive (doi:10.1016/j.jct.2009.07.014)
